Active and inactive are the calls of the source. The rule behind the calls is not given here; tested in parental BL2 cells.

The results in this text go back to PubChem BioAssay AID1259333 (Broad Institute, 2017).

The nature of one assay: loss of cell viability by ATP content – CellTiter-Glo, cytotoxicity control, dose response (AID 1259333).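 Note: 0% = vehicle neutral controls and -100% = reference inhibitor positive controls.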 Conditions: cytotoxicity, CellTiter-Glo ATP luminescence; at 3.5 µM (top of the series).
Turning to `C[C@H](CO)N1C[C@H](C)[C@H](CN(C)CC2CCCCC2)Oc2ccc(NC(=O)Nc3ccc(C(F)(F)F)cc3)cc2C1=O`, the activity change, negative = cytotoxicity is 32.8% (inactive).

Staying with this assay, now noted: cytotoxicity, CellTiter-Glo ATP luminescence; at 10 µM (top of the series).
In the case of `N#Cc1cccc(-c2ccc([C@@H]3[C@@H]4CN(S(=O)(=O)c5ccc(-c6ccccc6)cc5)C[C@H]3N4)cc2)c1`, the activity change, negative = cytotoxicity was 25.4% (inactive).

With `O=C1C(=NO)CCc2ccccc21`, the activity change, negative = cytotoxicity was 115% (inactive). On the same count and under the same terms, as for `CCN(CC(=O)Nc1ccc(NC(C)=O)cc1)C(=O)C1CCCN(C(=O)c2ccc(Cl)cc2)C1` (stereo unspecified), the figure is 33.9% (inactive); as for `Cc1ccc(C(CC(=O)NCc2ccco2)c2ccc(OC(C)C)cc2)cc1` (stereo unspecified), -3.48% (inactive); as for `COc1ccc(S(=O)(=O)N(C)C[C@H]2Oc3ccc(NC(=O)Nc4ccc(C(F)(F)F)cc4)cc3C(=O)N([C@@H](C)CO)C[C@@H]2C)cc1`, 33.2% (inactive). Regarding `CC(=O)O[C@@H]1C[C@@]2(C)[C@H](c3ccoc3)C[C@H]3O[C@]32[C@]2(C)C(=O)C(=O)C3C(C)(C)C(=O)C=C[C@]3(C)C12` (stereo partly specified), the activity change, negative = cytotoxicity was 188% (inactive).

For `O=C1CC(c2ccc3c(c2)OCO3)Sc2nc3ccccc3n21` (stereo unspecified), the activity change, negative = cytotoxicity was 31.6% (inactive). In the case of `O=c1cc(-c2ccccc2)oc2cc(O)cc(O)c12`, the activity change, negative = cytotoxicity was 52.1% (inactive). Regarding `Cc1noc(C)c1S(=O)(=O)Nc1ccc2c(c1)C(=O)N([C@H](C)CO)C[C@@H](C)[C@H](CN(C)C(=O)Nc1cccc3ccccc13)OCCCC[C@@H](C)O2`, the activity change, negative = cytotoxicity was 33.4% (inactive). In the case of `Cc1ccc(S(=O)(=O)N[C@@H](Cc2ccccc2)C(=O)CCl)cc1`, the activity change, negative = cytotoxicity is 82.4% (inactive). Regarding `CCc1cnc(N2[C@H](C#N)[C@@H](c3ccc(C#CC(C)C)cc3)[C@H]2CO)s1`, the activity change, negative = cytotoxicity was 10.7% (inactive). For `N#C[C@@H]1[C@@H](c2ccccc2)[C@H](CO)N1C(=O)CN1CCOCC1`, the activity change, negative = cytotoxicity was 77.6% (inactive). On to `COc1ccc(C(=O)/C=C/C(=O)N(CC(=O)NC2CCCCC2)Cc2ccc(F)cc2)c(O)c1`, for which the activity change, negative = cytotoxicity was 46.2% (inactive).

With `CC(C)(C)n1cc(C(=O)c2ccc3ccccc3c2O)cn1`, the activity change, negative = cytotoxicity is 24.3% (inactive).

For `Cc1ccc(-c2nn3c(C)nnc3c3ccccc23)cc1S(=O)(=O)NCc1ccccc1`, the activity change, negative = cytotoxicity was 16.1% (inactive). With `O=C(C1CCOCC1)N1CC(=O)N2[C@H](C1)[C@H](c1ccc(C#CCc3ccccc3)cc1)[C@@H]2CO`, the activity change, negative = cytotoxicity was 95.5% (inactive). Turning to `Cc1ccccc1-c1ccc2c(c1)O[C@@H](CN(C)C(=O)Nc1ccc(C(F)(F)F)cc1)[C@@H](C)CN([C@@H](C)CO)S2(=O)=O`, the activity change, negative = cytotoxicity was 16.7% (inactive). The same measure, in the same setting: as for `COc1cccc(OC)c1OCCNCC1COc2ccccc2O1` (stereo unspecified), the figure is 48.7% (inactive). On to `C[C@H](CO)N1C[C@H](C)[C@H](CN(C)Cc2ccc(Oc3ccccc3)cc2)OCc2ccccc2-c2ccccc2C1=O`, for which the activity change, negative = cytotoxicity was 15.4% (inactive). On to `NS(=O)(=O)c1nn2cc(-c3ccccc3)nc2s1`, for which the activity change, negative = cytotoxicity was 65.7% (inactive). Turning to `CC(=O)Nc1nc2nc(-c3ccccc3)cc(-c3ccccc3)n2n1`, the activity change, negative = cytotoxicity is 47.9% (inactive). The same measure, in the same setting: as for `Cc1ccc(C2(C)NC(=O)N(CC(=O)Nc3cccnc3Cl)C2=O)cc1` (stereo unspecified), the figure is 21.9% (inactive); as for `N#C[C@H]1[C@H](c2ccc(C#Cc3ccc(F)cc3)cc2)[C@@H](CO)N1C(=O)C1CCC1`, -4.11% (inactive). The same measure, in the same setting: as for `CCc1cnc(N2[C@H](C#N)[C@H](c3ccc(C#CCC4CCCC4)cc3)[C@@H]2CO)s1`, the figure is 56.6% (inactive).

Consider `CCCNC(=O)N1[C@H](C#N)[C@H](c2ccc(C#Cc3cccc(F)c3)cc2)[C@H]1CO`, for which the activity change, negative = cytotoxicity was 16.9% (inactive). Turning to `C[C@H]1CCCCO[C@H](CN(C)Cc2ccc(C(F)(F)F)cc2)[C@@H](C)CN([C@@H](C)CO)C(=O)c2cc(NC(=O)Nc3cccc4ccccc34)ccc2O1`, the activity change, negative = cytotoxicity is 29.1% (inactive). Turning to `CC(=NNc1ccc2ccccc2n1)c1ccccc1O`, the activity change, negative = cytotoxicity was -29.4% (inactive). Take `CC(=O)OC1CCC2(C)C(CCC3C4CC=C(C(C)=O)C4(C)OC(=O)CC32)C1` (stereo unspecified): the activity change, negative = cytotoxicity is 133% (inactive). For `CCOc1ccc(OCc2cccc(C(=O)N3CCOCC3)c2)cc1`, the activity change, negative = cytotoxicity was 42% (inactive). Same read-out and setting: as for `COCCn1c(C)cc(C(=O)COC(=O)c2ccc(Br)o2)c1C`, the figure is 28.5% (inactive); as for `Cc1ccc(-c2ccccc2[C@H]2[C@@H](C#N)N(c3ncc(-c4ccccc4)s3)[C@@H]2CO)cc1`, 47.4% (inactive); as for `COc1cc2c(cc1OC)C(=O)C(Br)CC2` (stereo unspecified), 112% (inactive). For the compound `COc1cccc(S(=O)(=O)N(C)C[C@@H]2OCc3ccccc3-c3c(n(C)c4ccccc34)C(=O)N([C@H](C)CO)C[C@@H]2C)c1`, the activity change, negative = cytotoxicity was 41.8% (inactive). Same read-out and setting: as for `CN(C)c1ccc(NC(=O)c2cnsn2)cc1`, the figure is 17.7% (inactive); as for `Cc1cccc(-c2ccc(C3[C@@H]4CN(C(=O)Nc5ccc(C(F)(F)F)cc5)C[C@H]3N4)cc2)c1` (stereo partly specified), 26.3% (inactive). The same measure, in the same setting: as for `C[C@H]1CN([C@@H](C)CO)C(=O)c2cccc(NC(=O)Nc3ccc(F)cc3)c2O[C@H]1CN(C)S(=O)(=O)c1ccc(Cl)cc1`, the figure is 55% (inactive). `O=C(C1CC1)N1C[C@@H]2N[C@H](C1)C2c1ccc(-c2cccc(F)c2)cc1` (stereo partly specified): the activity change, negative = cytotoxicity is -17.6% (inactive). Same read-out and setting: as for `CC(C)C1CC(N(C)C)=CC(=S)N1` (stereo unspecified), the figure is 24.5% (inactive); as for `C[C@H]1CN([C@@H](C)CO)C(=O)Cc2cc(NS(=O)(=O)c3cccs3)ccc2O[C@@H]1CN(C)Cc1ccc(Cl)c(Cl)c1`, 29.8% (inactive); as for `CSC1SCC2C(=O)N(C)C(C(C)C)C(=O)OCC(NC(=O)c3cnc4ccccc4n3)C(=O)NC(C)C(=O)N(C)C1C(=O)N(C)C(C(C)C)C(=O)OCC(NC(=O)c1cnc3ccccc3n1)C(=O)NC(C)C(=O)N2C` (stereo unspecified), 62.7% (inactive). In the case of `COc1ccc(C=Cc2ccc3ccccc3n2)c(OC)c1`, the activity change, negative = cytotoxicity was 26.9% (inactive).

Take `Oc1ccc(Cc2ccccc2)c2cccnc12`: the activity change, negative = cytotoxicity was 41.6% (inactive). `COc1ccc(S(=O)(=O)Nc2ccc3c(c2)C(=O)N([C@@H](C)CO)C[C@@H](C)[C@@H](CN(C)Cc2ccc(C(F)(F)F)cc2)OCCCC[C@@H](C)O3)cc1`: the activity change, negative = cytotoxicity is -20.6% (inactive).

Consider `CCC(=O)NC(c1ccccc1OC)c1ccc2cccnc2c1O` (stereo unspecified), for which the activity change, negative = cytotoxicity was 40.2% (inactive). Consider `O=C(Nc1nnc(C2CC2)s1)C1CC(=O)N(c2ccc3c(c2)OCCO3)C1` (stereo unspecified), for which the activity change, negative = cytotoxicity was 52.3% (inactive). In the case of `N#C[C@H]1[C@@H](c2ccc(C#CC3CCCCC3)cc2)[C@H](CO)N1C(=O)Nc1ccc(F)cc1`, the activity change, negative = cytotoxicity is 22.4% (inactive). Regarding `N#Cc1ccc(-c2ccc3c(c2)[C@H]2[C@H](CCN2C(=O)C2CC2)[C@@H](CO)N3)cc1`, the activity change, negative = cytotoxicity was 66.9% (inactive). Same read-out and setting: as for `COc1cccc(S(=O)(=O)N(C)C[C@@H]2OCc3ccccc3-c3c(n(C)c4ccccc34)C(=O)N([C@H](C)CO)C[C@H]2C)c1`, the figure is 9.22% (inactive). Consider `CS(=O)(=O)c1ccc(C(=O)OCC(=O)NC(=O)C2CCCCC2)cc1[N+](=O)[O-]`, for which the activity change, negative = cytotoxicity is 42.9% (inactive). The same measure, in the same setting: as for `CC1CCOC(=O)C=CC=CC(=O)OC2CC3OC4C5OC5(C)C(O)CC4(COC(=O)C1O)C2(C)C31CO1` (stereo unspecified), the figure is 6.8% (inactive); as for `O=C1CCCCC1Sc1nnc(-c2ccc3c(c2)OCO3)o1` (stereo unspecified), 25.1% (inactive); as for `COc1ccc(-c2cnc3c(c2)C(=O)N([C@H](C)CO)C[C@@H](C)[C@@H](CN(C)C(=O)Nc2c(C)noc2C)O3)cc1`, 49.3% (inactive). As for `c1cncc(C2=NCCC2)c1`, the activity change, negative = cytotoxicity was 36.6% (inactive). With `C[C@H]1CN([C@@H](C)CO)C(=O)c2ccccc2-c2ccccc2CO[C@H]1CN(C)C(=O)[C@@H](Cc1ccccc1)N(C)C`, the activity change, negative = cytotoxicity is 83.4% (inactive). `CC(=O)NC12CC3CC(C1)CC(C(=O)OCC(=O)c1ccc4c(c1)OCCO4)(C3)C2`: the activity change, negative = cytotoxicity is 20.6% (inactive).

As to `CS(=O)(=O)c1ccc(C(=O)OCC(=O)NC(=O)C2COc3ccccc3O2)cc1[N+](=O)[O-]` (stereo unspecified), the activity change, negative = cytotoxicity is 25.3% (inactive).

As to `CC(=O)c1cc(-c2ccccc2)n(CC(=O)NCc2cccs2)c1C`, the activity change, negative = cytotoxicity was 2.3% (inactive). Take `C[C@H]1CN([C@@H](C)CO)C(=O)c2c(c3ccccc3n2C)-c2ccccc2CO[C@H]1CN(C)C(=O)Nc1ccccc1C(F)(F)F`: the activity change, negative = cytotoxicity is -4.57% (inactive).

With `CCCn1c(NC(=O)c2cccc(S(=O)(=O)N3CCCC3)c2)nc2ccccc21`, the activity change, negative = cytotoxicity was 12.5% (inactive). With `CC=Cc1cc2c(c(=O)o1)C(=O)C(O)C(C)O2` (stereo unspecified), the activity change, negative = cytotoxicity was 37.6% (inactive). As for `C[C@@H]1CN([C@H](C)CO)C(=O)c2cc(NS(=O)(=O)c3cccs3)ccc2O[C@@H](C)CCCCO[C@H]1CN(C)Cc1ccc(Cl)c(Cl)c1`, the activity change, negative = cytotoxicity was 16.1% (inactive). In the case of `CCCCc1nc2ccccc2[nH]1`, the activity change, negative = cytotoxicity was 13.9% (inactive). As to `COC1=CC(=O)c2c(ccc3ncnc(N)c23)C1=O`, the activity change, negative = cytotoxicity is 44.6% (inactive). As for `Cn1cnc(S(=O)(=O)N2C[C@@H]3N[C@H](C2)C3c2ccc(-c3ccccc3F)cc2)c1` (stereo partly specified), the activity change, negative = cytotoxicity was 36.7% (inactive). The same measure, in the same setting: as for `CC(C)(C)NCC(=Cc1ccccc1)C(=O)c1ccccc1`, the figure is 103% (inactive).
